Patent US20070213339A1 (Bayer Pharmaceuticals Corporation, priority 2004, published 2007)

System: Colo205 human colon carcinoma cell line
Test: In vitro tumor cell proliferation assay (MTS, CellTiter 96 Aqueous One Solution)
Assay type: cell-based
Conditions: COLO 205, Colo205 cells, 72 hours compound exposure, MTS absorbance at 490 nm, read-out: IC50 (concentration of test compound required to inhibit proliferation of 50% of the cells)
Procedure, shortened: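 Proliferation measured as MTS tetrazolium reduction (490 nm) after 72 h compound exposure at 37 °C. Cells plated at 2000 per well in serum-supplemented RPMI-1640; duplicate 5-point dilutions topping out at 10-20 μM. Percent inhibition versus untreated and cell-free wells, IC50 derived by linear regression.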

Compound	IC50 [nM]
Cc1cccnc1N1CCN(c2c(F)cc3c(=O)c(C(=O)O)cn(-c4ccc(CN5CCCC5)cc4F)c3c2Cl)CC1 [Example 44, 8-chloro-6-fluoro-1-[2-fluoro-4-(pyrrolidin-1-ylmethyl)phenyl]-7-[4-(3-methylpyridin-2-yl)piperazin-1-yl]-4-oxo-1,4-dihydroquinoline-3-carboxylic acid]	< 500
N#Cc1ccccc1N1CCN(c2c(F)cc3c(=O)c(C(=O)O)cn(-c4ccc(CN5CC[C@H](O)C5)cc4)c3c2Cl)CC1 [Example 30, 8-chloro-7-[4-(2-cyanophenyl)piperazin-1-yl]-6-fluoro-1-(4-{[(3S)-3-hydroxypyrrolidin-1-yl]methyl}phenyl)-4-oxo-1,4-dihydroquinoline-3-carboxylic acid]	< 500
CN(C)Cc1ccc(-n2cc(C(=O)O)c(=O)c3cc(F)c(N4CCN(c5ccc(Cl)cc5)CC4)c(OC(F)(F)Cl)c32)cc1 [Example 156, 8-[chloro(difluoro)methoxy]-7-[4-(4-chlorophenyl)piperazin-1-yl]-1-{4-[(dimethylamino)methyl]phenyl}-6-fluoro-4-oxo-1,4-dihydroquinoline-3-carboxylic acid]	< 500
CC1CCC(C)N1Cc1ccc(-n2cc(C(=O)O)c(=O)c3cc(F)c(N4CCN(c5ccccn5)CC4)c(Cl)c32)cc1 (stereo not shown) [Example 19, 8-chloro-1-{4-[(2,5-dimethylpyrrolidin-1-yl)methyl]phenyl}-6-fluoro-4-oxo-7-(4-pyridin-2-ylpiperazin-1-yl)-1,4-dihydroquinoline-3-carboxylic acid]	< 500
COc1c(N2CCN(c3ccc(F)cc3F)CC2)c(F)cc2c(=O)c(C(=O)O)cn(-c3ccc(CN(C)C)cc3)c12 [Example 101, 7-[4-(2,4-difluorophenyl)piperazin-1-yl]-1-{4-[(dimethylamino)methyl]phenyl}-6-fluoro-8-methoxy-4-oxo-1,4-dihydroquinoline-3-carboxylic acid]	500 to 2000
O=C(O)c1cn(-c2ccc(CN3CCCC3)cc2)c2c(OC(F)(F)F)c(N3CCN(c4ncccn4)CC3)c(F)cc2c1=O [Example 123, 6-fluoro-4-oxo-7-(4-pyrimidin-2-yl-piperazin-1-yl)-1-[4-(pyrrolidin-1-ylmethyl)phenyl]-8-(trifluoromethoxy)-1,4-dihydroquinoline-3-carboxylic acid]	< 500
O=C(O)c1cn(-c2ccc(CN3CCCC3)nc2)c2c(Cl)c(N3CCN(c4ccccn4)CC3)c(F)cc2c1=O [Example 34, 8-chloro-6-fluoro-4-oxo-7-(4-pyridin-2-yl-piperazin-1-yl)-1-[6-(pyrrolidin-1-ylmethyl)pyridin-3-yl]-1,4-dihydroquinoline-3-carboxylic acid]	500 to 2000
CCN(C)Cc1ccc(-n2cc(C(=O)O)c(=O)c3cc(F)c(N4CCN(c5ccc(F)cc5)CC4)c(OC(F)(F)Cl)c32)cc1 [Example 167, 8-[chloro(difluoro)methoxy]-1-(4-{[ethyl(methyl)amino]methyl}phenyl)-6-fluoro-7-[4-(4-fluorophenyl)piperazin-1-yl]-4-oxo-1,4-dihydroquinoline-3-carboxylic acid]	< 500
COC[C@H]1CCCN1Cc1ccc(-n2cc(C(=O)O)c(=O)c3cc(F)c(N4CCN(c5ccc(F)cc5)CC4)c(Cl)c32)cc1 [Example 23, 8-chloro-6-fluoro-7-[4-(4-fluorophenyl)-piperazin-1-yl]-1-(4-{[(2R)-2-(methoxymethyl)pyrrolidin-1-yl]methyl}phenyl)-4-oxo-1,4-dihydroquinoline-3-carboxylic acid]	< 500
O=C(O)c1cn(-c2cccc(CN3CCCCC3)c2)c2c(OC(F)(F)F)c(N3CCN(c4ncccn4)CC3)c(F)cc2c1=O [Example 143, 6-fluoro-4-oxo-1-[3-(piperidin-1-yl-methyl)phenyl]-7-(4-pyrimidin-2-ylpiperazin-1-yl)-8-(trifluoromethoxy)-1,4-dihydroquinoline-3-carboxylic acid]	500 to 2000
COc1c(N2CCN(c3ccccc3C#N)CC2)c(F)cc2c(=O)c(C(=O)O)cn(-c3ccc(CN(C)C)cc3)c12 [Example 95, 7-[4-(2-cyanophenyl)piperazin-1-yl]-1-{4-[(dimethylamino)methyl]phenyl}-6-fluoro-8-methoxy-4-oxo-1,4-dihydroquinoline-3-carboxylic acid]	500 to 2000
COc1c(N2CCN(c3ccc(C#N)cc3)CC2)c(F)cc2c(=O)c(C(=O)O)cn(-c3ccc(CN4CCCCC4)cc3)c12 [Example 192, 7-[4-(4-cyanophenyl)-piperazine-1-yl]-6-fluoro-8-methoxy-4-oxo-1-(4-piperidin-1-ylmethyl-phenyl)-1,4-dihydroquinoline-3-carboxylic acid]	< 500
CCN(C)Cc1ccc(-n2cc(C(=O)O)c(=O)c3cc(F)c(N4CCN(c5ncccc5C#N)CC4)c(OC(F)(F)Cl)c32)cc1 [Example 166, 8-[chloro(difluoro)methoxy]-7-[4-(3-cyanopyridin-2-yl)piperazin-1-yl]-1-(4-{[ethyl(methyl)amino]methyl}phenyl)-6-fluoro-4-oxo-1,4-dihydroquinoline-3-carboxylic acid]	< 500
O=C(O)c1cn(-c2cccc(CN3CCCCC3)c2)c2c(OC(F)(F)F)c(N3CCN(c4ccc(F)cc4F)CC3)c(F)cc2c1=O [Example 142, 7-[4-(2,4-difluorophenyl)piperazin-1-yl]-6-fluoro-4-oxo-1-[3-(piperidin-1-ylmethyl)phenyl]-8-(trifluoromethoxy)-1,4-dihydroquinoline-3-carboxylic acid]	2000 to 20000
O=C(O)c1cn(-c2ccc(CNC3CCC[C@@H]3O)cc2)c2c(Cl)c(N3CCN(c4ccccn4)CC3)c(F)cc2c1=O (stereo in doubt) [Example 172, 8-chloro-6-fluoro-1{4-[(2-hydroxycyclopentylamino)-methyl]-phenyl}-4-oxo-7-(4-pyridin-2-yl-piperazine-1-yl)-1,4-dihydro-quinoline-3-carboxylic acid]	< 500
Cc1ccc(N2CCN(c3c(F)cc4c(=O)c(C(=O)O)cn(-c5ccc(CN6CCCC6)cc5)c4c3OC(F)(F)Cl)CC2)c(C)c1 [Example 150, 8-[chloro(difluoro)methoxy]-7-[4-(2,4-dimethylphenyl)piperazin-1-yl]-6-fluoro-4-oxo-1-[4-(pyrrolidin-1-ylmethyl)phenyl]-1,4-dihydroquinoline-3-carboxylic acid]	500 to 2000
COc1c(N2CCN(c3ccccc3F)CC2)c(F)cc2c(=O)c(C(=O)O)cn(-c3ccc(CN4CCCC4)cc3)c12 [Example 75, 6-fluoro-7-[4-(2-fluorophenyl)piperazin-1-yl]-8-methoxy-4-oxo-1-[4-(pyrrolidin-1-ylmethyl)phenyl]-1,4-dihydroquinoline-3-carboxylic acid]	500 to 2000
CCN(CC)Cc1ccc(-n2cc(C(=O)O)c(=O)c3cc(F)c(N4CCN(c5cccc(Cl)c5)CC4)c(OC)c32)cc1 [Example 115, 7-[4-(3-chlorophenyl)piperazin-1-yl]-1-{4-[(diethylamino)methyl]phenyl}-6-fluoro-8-methoxy-4-oxo-1,4-dihydroquinoline-3-carboxylic acid]	< 500
O=C(O)c1cn(-c2ccc(CN3CC[C@@H](O)C3)cc2)c2c(Cl)c(N3CCN(c4ccc(F)cc4)CC3)c(F)cc2c1=O [Example 31, 8-chloro-6-fluoro-7-[4-(4-fluorophenyl)-piperazin-1-yl]-1-(4-{[(3R)-3-hydroxypyrrolidin-1-yl]methyl}phenyl)-4-oxo-1,4-dihydroquinoline-3-carboxylic acid]	< 500
COc1c(N2CCN(c3ccccn3)CC2)c(F)cc2c(=O)c(C(=O)O)cn(-c3ccc(CN(C)C)cc3)c12 [Example 92, 1-{4-[(dimethylamino)methyl]phenyl}-6-fluoro-8-methoxy-4-oxo-7-(4-pyridin-2-ylpiperazin-1-yl)-1,4-dihydroquinoline-3-carboxylic acid]	< 500
CCN(CC)Cc1ccc(-n2cc(C(=O)O)c(=O)c3cc(F)c(N4CCN(c5ncccc5C#N)CC4)c(OC)c32)cc1 [Example 113, 7-[4-(3-cyanopyridin-2-yl)piperazin-1-yl]-1-{4-[(diethylamino)methyl]phenyl}-6-fluoro-8-methoxy-4-oxo-1,4-dihydroquinoline-3-carboxylic acid]	< 500
O=C(O)c1cn(-c2ccc(CN3CC[C@H](O)C3)cc2)c2c(Cl)c(N3CCN(c4ccc(F)cc4)CC3)c(F)cc2c1=O [Example 29, 8-chloro-6-fluoro-7-[4-(4-fluorophenyl)-piperazin-1-yl]-1-(4-{[(3S)-3-hydroxypyrrolidin-1-yl]methyl}phenyl)-4-oxo-1,4-dihydroquinoline-3-carboxylic acid]	< 500
O=C(O)c1cn(-c2ccc(CN3CCCC3)cc2)c2c(OC(F)(F)Cl)c(N3CCN(c4ccc(F)cc4)CC3)c(F)cc2c1=O [Example 147, 8-[chloro(difluoro)methoxy]-6-fluoro-7-[4-(4-fluorophenyl)piperazin-1-yl]-4-oxo-1-[4-(pyrrolidin-1-ylmethyl)phenyl]1,4-dihydroquinoline-3-carboxylic acid]	< 500
O=C(O)c1cn(-c2ccc(CN3CCCC3)cc2F)c2c(Cl)c(N3CCN(c4ncccn4)CC3)c(F)cc2c1=O [Example 40, 8-chloro-6-fluoro-1-[2-fluoro-4-(pyrrolidin-1-ylmethyl)phenyl]-4-oxo-7-(4-pyrimidin-2-ylpiperazin-1-yl)-1,4-dihydroquinoline-3-carboxylic acid]	< 500
CCN(CC)Cc1ccc(-n2cc(C(=O)O)c(=O)c3cc(F)c(N4CCN(c5ncccn5)CC4)c(OC)c32)cc1 [Example 106, 1-{4-[(diethylamino)methyl]phenyl}-6-fluoro-8-methoxy-4-oxo-7-(4-pyrimidin-2-ylpiperazin-1-yl)-1,4-dihydroquinoline-3-carboxylic acid]	< 500
